Data reported in patent US8354436B2 (4SC Discovery GmbH, priority 2011, dated 2013).
Where two headings read alike, the source gives them in different places.

Assays:
Format in all cases: cell-based
Conditions in all cases: 48 hours
IL-17FF = IL-17FF production by PHA-stimulated human PBMC (human IL-17F ELI-Pair)
Method in brief: (§1)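 Inhibition of PHA-driven (2 μg/ml) cytokine release from human PBMC at 1×10^5 cells/well, 48 h compound exposure. IC50 from semilog titrations.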

IFN-γ = IFN-γ production by PHA-stimulated human PBMC (OptEIA human IFN-g ELISA)
Method in brief: as §1

[1] = tested on: PBMC from healthy human donors; assay: T cell proliferation assay (PHA-stimulated human PBMC, BrdU ELISA)
Method in brief: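 Healthy-donor PBMC isolated on Ficoll, seeded at 1×10⁵ cells/well in RPMI with 10% dialysed FCS, stimulated with 2 μg/ml PHA in presence of test compound. Proliferation read after 48 hours by BrdU-incorporation ELISA.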

[2] = PHA-stimulated human PBMC, column B, read-out: IC50 (IL-17FF)
[3] = PHA-stimulated human PBMC, column C, read-out: IC50 (IFNγ)
[4] = PHA-stimulated human PBMC, column D, read-out: IC50 (Tcell proliferation)
[5] = human PBMC, 2 μg/ml PHA, read-out: B: IC50 (IL-17FF)
[6] = human PBMC, 2 μg/ml PHA, read-out: C: IC50 (IFNγ)
[7] = human PBMC, 2 μg/ml PHA, read-out: D: IC50 (Tcell proliferation)

CCOC(=O)c1c(-c2onc(-c3c(F)cccc3Cl)c2C(=O)OC)cnn1-c1ccccc1F [Example I-41, methyl 3-(2-chloro-6-phenyl)-5-(5-(ethoxycarbonyl)-1-(2-fluorophenyl)-1H-pyrazol-4-yl)isoxazole-4-carboxylate]
IC50 (IL-17FF; [2]): 100 to 1000 nM
IC50 (IFN-γ; [3]): 100 to 1000 nM
IC50 [1, 4]: 100 to 1000 nM

COC(=O)c1c(-c2c(F)cccc2Cl)noc1-c1cnn(C2CCS(=O)(=O)C2)c1C(F)(F)F (stereo not drawn) [Example I-103, methyl 3-(2-chloro-6-fluorophenyl)-5-(1-(3-hydrazinyltetrahy-drothiophene 1,1-dioxide)-5-(trifluoromethyl)-1H-pyrazol-4-yl)isoxazole-4-carboxylate]
IC50 (IL-17FF; [2]): 100 to 1000 nM
IC50 (IFN-γ; [3]): 100 to 1000 nM
IC50 [1, 4]: 100 to 1000 nM

Fc1cccc(Cl)c1-c1noc(-c2cnn(-c3ccncc3)c2C(F)(F)F)c1Br [IB-83, 4-bromo-3-(2-chloro-6-fluorophenyl)-5-(1-(pyridin-4-yl)-5-(trifluoromethyl)-1H-pyrazol-4-yl)isoxazole]
IC50 (IL-17FF; [2]): 100 to 1000 nM
IC50 (IFN-γ; [3]): 1000 to 10000 nM
IC50 [1, 4]: 1000 to 10000 nM

COC(=O)c1c(-c2c(F)cccc2Cl)noc1-c1cnn(CC(F)(F)F)c1C(F)(F)F [Example I-65, methyl 3-(2-chloro-6-fluorophenyl)-5-(1-(2,2,2-trifluoroethyl)-5-(trifluoromethyl)-1H-pyrazol-4-yl)isoxazole-4-carboxylate]
IC50 (IL-17FF; [2]): 10 to 100 nM
IC50 (IFN-γ; [3]): 10 to 100 nM
IC50 [1, 4]: 10 to 100 nM

Cc1nnc(-c2c(-c3c(F)cccc3Cl)noc2-c2cnn(-c3cccc(Cl)c3)c2C(F)(F)F)o1 [Example B-4, 2-(3-(2-chloro-6-fluorophenyl)-5-(1-(3-chlorophenyl)-5-(trifluoromethyl)-1H-pyrazol-4-yl)isoxazol-4-yl)-5-methyl-1,3,4-oxadiazole]
IC50 (IL-17FF; [5]): < 10 nM
IC50 (IFN-γ; [6]): < 10 nM
IC50 [1, 7]: < 10 nM

CCOC(=O)c1csc(-c2c(-c3c(F)cccc3Cl)noc2-c2cnn(-c3cccc(F)c3)c2C(F)(F)F)n1 [Example B-1, ethyl 2-(3-(2-chloro-6-fluorophenyl)-5-(1-(3-fluorophenyl)-5-(trifluoromethyl)-1H-pyrazol-4-yl)isoxazol-4-yl)thiazole-4-carboxylate]
IC50 (IL-17FF; [5]): 100 to 1000 nM
IC50 (IFN-γ; [6]): 100 to 1000 nM
IC50 [1, 7]: 100 to 1000 nM

Fc1cccc(-n2ncc(-c3onc(-c4c(F)cccc4Cl)c3-c3nnc(C(F)(F)F)o3)c2C(F)(F)F)c1 [Example 6, 2-(3-(2-chloro-6-fluorophenyl)-5-(1-(3-fluorophenyl)-5-(trifluoromethyl)-1H-pyrazol-4-yl)isoxazol-4-yl)-5-(trifluoromethyl)-1,3,4-oxadiazole]
IC50 (IL-17FF; [5]): 10 to 100 nM
IC50 (IFN-γ; [6]): 10 to 100 nM
IC50 [1, 7]: 10 to 100 nM

COC(=O)c1c(-c2c(F)cccc2Cl)noc1-c1cnn(-c2ccccc2F)c1C(F)(F)F [Example I-1, methyl 3-(2-chloro-6-fluorophenyl)-5-(1-(2-fluorophenyl)-5-(trifluoromethyl)-1H-pyrazol-4-yl)isoxazole-4-carboxylate]
IC50 (IL-17FF; [2]): 10 to 100 nM
IC50 (IFN-γ; [3]): < 10 nM
IC50 [1, 4]: 10 to 100 nM

CCOC(=O)c1c(-c2ccncc2F)noc1-c1cnn(-c2cccc(F)c2)c1C(F)(F)F [IB-14, ethyl 5-(1-(3-fluorophenyl)-5-(trifluoromethyl)-1H-pyrazol-4-yl)-3-(3-fluoropyridin-4-yl)isoxazole-4-carboxylate]
IC50 (IL-17FF; [2]): 100 to 1000 nM
IC50 (IFN-γ; [3]): 1000 to 10000 nM
IC50 [1, 4]: 1000 to 10000 nM

Fc1cc(F)cc(-n2ncc(-c3onc(-c4c(F)cccc4Cl)c3Br)c2C(F)(F)F)c1 [IB-27, 4-bromo-3-(2-chloro-6-fluorophenyl)-5-(1-(3,5-difluorophenyl)-5-(trifluoromethyl)-1H-pyrazol-4-yl)isoxazole]
IC50 (IL-17FF; [2]): 100 to 1000 nM
IC50 (IFN-γ; [3]): 100 to 1000 nM
IC50 [1, 4]: 100 to 1000 nM

Fc1cccc(Cl)c1-c1noc(-c2cnn(-c3ccncc3)c2C(F)(F)F)c1-c1nnco1 [Example B-16, 2-(3-(2-chloro-6-fluorophenyl)-5-(1-(pyridin-4-yl)-5-(trifluoromethyl)-1H-pyrazol-4-yl)isoxazol-4-yl)-1,3,4-oxadiazole]
IC50 (IL-17FF; [5]): 100 to 1000 nM
IC50 (IFN-γ; [6]): 100 to 1000 nM
IC50 [1, 7]: 100 to 1000 nM

COC(=O)c1c(-c2c(F)cccc2Cl)noc1-c1cnn(-c2cccnc2)c1C(F)(F)F [IB-67, methyl 3-(2-chloro-6-fluorophenyl)-5-(1-(pyridin-3-yl)-5-(trifluoromethyl)-1H-pyrazol-4-yl)isoxazole-4-carboxylate]
IC50 (IL-17FF; [2]): 10 to 100 nM
IC50 (IFN-γ; [3]): 10 to 100 nM
IC50 [1, 4]: 10 to 100 nM

CCOC(=O)c1c(-c2ccc(Cl)cc2Cl)noc1-c1cnn(-c2cccc(Cl)c2)c1C(F)(F)F [IB-46, ethyl 5-(1-(3-chlorophenyl)-5-(trifluoromethyl)-1H-pyrazol-4-yl)-3-(2,4-dichlorophenyl)-isoxazole-4-carboxylate]
IC50 (IL-17FF; [2]): 100 to 1000 nM
IC50 (IFN-γ; [3]): 100 to 1000 nM
IC50 [1, 4]: 100 to 1000 nM

CSC(=O)c1c(-c2c(F)cccc2Cl)noc1-c1cnn(-c2cccnc2)c1C(F)(F)F [IB-68, S-methyl 3-(2-chloro-6-fluorophenyl)-5-(1-(pyridin-3-yl)-5-(trifluoromethyl)-1H-pyrazol-4-yl)isoxazole-4-carbothioate]
IC50 (IL-17FF; [2]): < 10 nM
IC50 (IFN-γ; [3]): < 10 nM
IC50 [1, 4]: 10 to 100 nM

CON(C)C(=O)c1c(-c2c(F)cccc2Cl)noc1-c1cnn(-c2cccc(F)c2)c1C(F)(F)F [Example I-135, 3-(2-chloro-6-fluorophenyl)-5-(1-(3-fluorophenyl)-5-(trifluoromethyl)-1H-pyrazol-4-yl)-N-methoxy-N-methylisoxazole-4-carboxamide]
IC50 (IL-17FF; [2]): 100 to 1000 nM
IC50 (IFN-γ; [3]): 100 to 1000 nM
IC50 [1, 4]: 100 to 1000 nM

CC(C)OC(=O)c1c(-c2c(F)cccc2Cl)noc1-c1cnn(-c2ccccc2Cl)c1C(F)(F)F [IB-60]
IC50 (IL-17FF; [2]): 1000 to 10000 nM
IC50 (IFN-γ; [3]): 1000 to 10000 nM
IC50 [1, 4]: 1000 to 10000 nM

COC(=O)c1c(-c2c(F)cccc2Cl)noc1-c1cnn(-c2cc(F)cc(F)c2)c1C(F)(F)F [Example I-50, methyl 3-(2-chloro-6-fluorophenyl)-5-(1-(3,5-difluorophenyl)-5-(trifluoromethyl)-1H-pyrazol-4-yl)isoxazole-4-carboxylate]
IC50 (IL-17FF; [2]): < 10 nM
IC50 (IFN-γ; [3]): < 10 nM
IC50 [1, 4]: < 10 nM

COC(=O)c1c(-c2c(F)cccc2Cl)noc1-c1cnn(-c2ccc(C(C)(C)C)cc2)c1C(F)(F)F [Example I-81, methyl 5-(1-(4-tert-butylphenyl)-5-(trifluoromethyl)-1H-pyrazol-4-yl)-3-(2-chloro-6-fluorophenyl)isoxazole-4-carboxylate]
IC50 (IL-17FF; [2]): 1000 to 10000 nM
IC50 (IFN-γ; [3]): 100 to 1000 nM
IC50 [1, 4]: 1000 to 10000 nM

Cc1nnc(-c2c(-c3c(F)cccc3Cl)noc2-c2cnn(-c3ccccn3)c2C(F)(F)F)s1 [Example B-27, 3-(2-chloro-6-fluorophenyl)-4-(5-methyl-1,3,4-thiadiazol-2-yl)-5-(1-(pyridin-2-yl)-5-(trifluoromethyl)-1H-pyrazol-4-yl)isoxazole]
IC50 (IL-17FF; [5]): 10 to 100 nM
IC50 (IFN-γ; [6]): 10 to 100 nM
IC50 [1, 7]: 10 to 100 nM

CCOC(=O)c1c(-c2c(F)cccc2Cl)noc1-c1cnn(-c2ccccn2)c1C(F)(F)F [IB-84, ethyl 3-(2-chloro-6-fluorophenyl)-5-(1-(pyridin-2-yl)-5-(trifluoromethyl)-1H-pyrazol-4-yl)isoxazole-4-carboxylate]
IC50 (IL-17FF; [2]): < 10 nM
IC50 (IFN-γ; [3]): < 10 nM
IC50 [1, 4]: < 10 nM
